Patent publication US20190314382A1, “COMPOUNDS AND PHARMACEUTICAL COMPOSITIONS THEREOF FOR THE TREATMENT OF INFLAMMATORY DISEASES” (Galapagos NV, priority 2016, published 2019)

How the values were obtained:
Assay type in all cases: in vivo, human
Details in all cases: observed case
[1] = tested on: IFNγ; experiment: Biomarker study in RA subjects: serum IFNγ, Luminex 18-Plex
Protocol: (§1) Double-blind, placebo-controlled add on study in subjects with moderately to severely active RA who have an inadequate response to MTX (oral or parenteral).
(§2) 595 subjects randomized to one of 6 dose regimens of Compound 1 (dosed as a [Compound 1:HCl:3H2O]) (3 dose levels administered either once or twice daily) or placebo on top of each subject's stable dose of MTX.
(§3) Compound 1 (dosed as a [Compound 1:HCl:3H2O]) is dosed for twelve weeks once daily (q.d.) (50 mg, 100 mg or 200 mg) or twice daily (b.i.d.) (25 mg, 50 mg or 100 mg); or placebo.
(§4) 18 parameters from human serum samples (GM-CSF, IFNγ, IL-1β, IL-2, IL-4, IL-5, IL-6, IL-7, IL-8, IL-10, IL-12 (p70), IL-13, IL-17A, IL-21, IL-23, MIP-1α, MIP-1β and TNF-α) are analyzed on a Luminex Plateform (BioPlex® L200) using a Luminex 18-Plex Kit (Millipore: HSTCMAG-28SK).
(§5) Coupled beads react with the sample containing the biomarker of interest. […] Phycoerythrin (PE) serves as a fluorescent indicator.
(§6) The concentration of bead bound analyte is proportional to the MFI (Median Fluorescent Intensity) and back-calculated from interpolation with the calibration curve fitted with a 4 or 5 parameters logistic (4PL or 5PL) regression model selected during method pre-validation.
(§7) Treatment effect was assessed using an ANCOVA model on the changes from baseline, with factors: treatment, baseline value of the PD marker, geographical region and previous use of biologics.

[2] = tested on: IL-17A; experiment: Biomarker study in RA subjects: serum IL-17A, Luminex 18-Plex
Protocol: as §1, §2, §3, §4, §5, §6, §7

[3] = tested on: MIP-1α; experiment: Biomarker study in RA subjects: serum MIP-1α, Luminex 18-Plex
Protocol: as §1, §2, §3, §4, §5, §6, §7

[4] = tested on: IL-4; experiment: Biomarker study in RA subjects: serum IL-4, Luminex 18-Plex
Protocol: as §1, §2, §3, §4, §5, §6, §7

[5] = tested on: IL-7; experiment: Biomarker study in RA subjects: serum IL-7, Luminex 18-Plex
Protocol: as §1, §2, §3, §4, §5, §6, §7

[6] = tested on: IL-12 (p70); experiment: Biomarker study in RA subjects: serum IL-12, Luminex 18-Plex
Protocol: as §1, §2, §3, §4, §5, §6, §7

[7] = tested on: IL-2; experiment: Biomarker study in RA subjects: serum IL-2, Luminex 18-Plex
Protocol: as §1, §2, §3, §4, §5, §6, §7

[8] = 50 mg bid, Week 4, N = 73, RA subjects on MTX
[9] = 50 mg bid, Week 12, N = 73, RA subjects on MTX
[10] = 100 mg bid, Week 4, N = 79, RA subjects on MTX
[11] = 100 mg bid, Week 12, N = 79, RA subjects on MTX
[12] = 100 mg qd, Week 4, N = 68, RA subjects on MTX
[13] = 100 mg qd, Week 12, N = 68, RA subjects on MTX
[14] = 200 mg qd, Week 4, N = 75, RA subjects on MTX
[15] = 200 mg qd, Week 12, N = 75, RA subjects on MTX

O=C(Nc1nc2cccc(-c3ccc(CN4CCS(=O)(=O)CC4)cc3)n2n1)C1CC1 [Compound 1, cyclopropanecarboxylic acid {5-[4-(1,1-dioxo-thiomorpholin-4-ylmethyl)-phenyl]-[1,2,4]triazolo[1,5-a]pyridin-2yl}-amide]
IFNγ Mean change from baseline at Week 4 [1, 8]: 1.6 pg/mL | IFNγ Mean change from baseline at Week 12 [1, 9]: -3.4 pg/mL | IFNγ Mean change from baseline at Week 4 [1, 10]: -3.3 pg/mL | IFNγ Mean change from baseline at Week 12 [1, 11]: -5.8 pg/mL | IFNγ Mean change from baseline at Week 4 [1, 12]: -3.8 pg/mL | IFNγ Mean change from baseline at Week 12 [1, 13]: -6.6 pg/mL | IFNγ Mean change from baseline at Week 4 [1, 14]: 0.5 pg/mL | IFNγ Mean change from baseline at Week 12 [1, 15]: -3.1 pg/mL | IL-17α Mean change from baseline at Week 4 [2, 8]: -4.4 pg/mL | IL-17α Mean change from baseline at Week 12 [2, 9]: -3.3 pg/mL | IL-17α Mean change from baseline at Week 4 [2, 10]: 3.9 pg/mL | IL-17α Mean change from baseline at Week 12 [2, 11]: -1.9 pg/mL | IL-17α Mean change from baseline at Week 4 [2, 12]: -5.9 pg/mL | IL-17α Mean change from baseline at Week 12 [2, 13]: -7.4 pg/mL | IL-17α Mean change from baseline at Week 4 [2, 14]: -1.6 pg/mL | IL-17α Mean change from baseline at Week 12 [2, 15]: -0.9 pg/mL | MIP-1α Mean change from baseline at Week 4 [3, 8]: 1.0 pg/mL | MIP-1α Mean change from baseline at Week 12 [3, 9]: 8.5 pg/mL | MIP-1α Mean change from baseline at Week 4 [3, 10]: -3.1 pg/mL | MIP-1α Mean change from baseline at Week 12 [3, 11]: -5.2 pg/mL | MIP-1α Mean change from baseline at Week 4 [3, 12]: 7.0 pg/mL | MIP-1α Mean change from baseline at Week 12 [3, 13]: 9.1 pg/mL | MIP-1α Mean change from baseline at Week 4 [3, 14]: -1.6 pg/mL | MIP-1α Mean change from baseline at Week 12 [3, 15]: -2.6 pg/mL | IL-4 Mean change from baseline at Week 4 [4, 8]: -0.3 pg/mL | IL-4 Mean change from baseline at Week 12 [4, 9]: -2.1 pg/mL | IL-4 Mean change from baseline at Week 4 [4, 10]: -2.7 pg/mL | IL-4 Mean change from baseline at Week 12 [4, 11]: -2.7 pg/mL | IL-4 Mean change from baseline at Week 4 [4, 12]: 0.8 pg/mL | IL-4 Mean change from baseline at Week 12 [4, 13]: -1.6 pg/mL | IL-4 Mean change from baseline at Week 4 [4, 14]: 0.2 pg/mL | IL-4 Mean change from baseline at Week 12 [4, 15]: -2.5 pg/mL | IL-7 Mean change from baseline at Week 4 [5, 8]: -1.8 pg/mL | IL-7 Mean change from baseline at Week 12 [5, 9]: -2.6 pg/mL | IL-7 Mean change from baseline at Week 4 [5, 10]: -2.7 pg/mL | IL-7 Mean change from baseline at Week 12 [5, 11]: -3.0 pg/mL | IL-7 Mean change from baseline at Week 4 [5, 12]: -0.4 pg/mL | IL-7 Mean change from baseline at Week 12 [5, 13]: -1.2 pg/mL | IL-7 Mean change from baseline at Week 4 [5, 14]: -2.5 pg/mL | IL-7 Mean change from baseline at Week 12 [5, 15]: -3.3 pg/mL | IL-12 Mean change from baseline at Week 4 [6, 8]: -1.9 pg/mL | IL-12 Mean change from baseline at Week 12 [6, 9]: -2.3 pg/mL | IL-12 Mean change from baseline at Week 4 [6, 10]: -2.3 pg/mL | IL-12 Mean change from baseline at Week 12 [6, 11]: -3.9 pg/mL | IL-12 Mean change from baseline at Week 4 [6, 12]: -0.2 pg/mL | IL-12 Mean change from baseline at Week 12 [6, 13]: -1.2 pg/mL | IL-12 Mean change from baseline at Week 4 [6, 14]: -1.7 pg/mL | IL-12 Mean change from baseline at Week 12 [6, 15]: 20.5 pg/mL | IL-2 Mean change from baseline at Week 4 [7, 8]: -0.2 pg/mL | IL-2 Mean change from baseline at Week 12 [7, 9]: -1.9 pg/mL | IL-2 Mean change from baseline at Week 4 [7, 10]: -2.3 pg/mL | IL-2 Mean change from baseline at Week 12 [7, 11]: -4.1 pg/mL | IL-2 Mean change from baseline at Week 4 [7, 12]: -1.9 pg/mL
